Reference: US12428415B2, “Matriptase 2 inhibitors and uses thereof” (Disc Medicine, Inc., priority 2018, dated 2025)

target: T1, Human Recombinant Matriptase 2 (Homo sapiens, UniProt Q8IU80); experiment: Matriptase 2 fluorescence based inhibition assay, Method A (100 mM TRIS pH 9, 1 mg/mL BSA); assay type: biochemical; conditions: 1 uM; Assay Used A; read-out: Mar-2 % inhibition at 1 uM
T1 construct: purchased Enzo Life Sciences (an in-house preparation was also used) ALX-201-752-1
T1 sequence (Q8IU80 1-811): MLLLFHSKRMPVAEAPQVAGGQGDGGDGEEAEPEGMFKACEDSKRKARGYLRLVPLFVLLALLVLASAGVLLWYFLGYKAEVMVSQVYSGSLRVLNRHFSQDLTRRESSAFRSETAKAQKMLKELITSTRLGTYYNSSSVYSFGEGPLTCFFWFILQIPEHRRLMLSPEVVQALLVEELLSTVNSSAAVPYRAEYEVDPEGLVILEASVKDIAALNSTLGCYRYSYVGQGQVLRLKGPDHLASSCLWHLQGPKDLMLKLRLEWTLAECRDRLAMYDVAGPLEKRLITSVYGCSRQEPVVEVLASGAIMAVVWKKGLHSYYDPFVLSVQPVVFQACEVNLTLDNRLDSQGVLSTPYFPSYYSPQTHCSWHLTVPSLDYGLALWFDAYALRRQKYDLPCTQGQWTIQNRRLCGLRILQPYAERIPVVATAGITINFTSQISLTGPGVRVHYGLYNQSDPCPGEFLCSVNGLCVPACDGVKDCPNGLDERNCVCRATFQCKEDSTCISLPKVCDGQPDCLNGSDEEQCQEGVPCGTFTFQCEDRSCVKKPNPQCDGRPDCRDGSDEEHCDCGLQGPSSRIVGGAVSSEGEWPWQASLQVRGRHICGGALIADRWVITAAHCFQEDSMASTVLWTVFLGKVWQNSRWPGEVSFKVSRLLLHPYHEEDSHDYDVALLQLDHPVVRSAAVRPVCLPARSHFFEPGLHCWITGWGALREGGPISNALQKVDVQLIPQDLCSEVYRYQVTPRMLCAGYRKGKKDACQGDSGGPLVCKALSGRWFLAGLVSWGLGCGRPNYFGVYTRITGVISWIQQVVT
Protocol: Test compounds were evaluated for their potential to inhibit Human Recombinant Matriptase 2 (in-house and commercial protein from Enzo Life Sciences—cat log -ALX-201-752-1) using fluorescence based assay. The concentration of Recombinant Matriptase 2 and the substrate used in the assay was: 7 nM (commercial) and 15 nM (Inhouse Matriptase 2) and 100 μM (Boc-Gln-Ala-Arg-7-amido-4-methyl coumarin hydrobromide—Cat log: B4153-Sigma) respectively. The assay buffer used was 100 mM TRIS pH 9, 1 mg/mL BSA. The assay was performed using 384 well black flat bottom plate from grenier (Cat log: 781076) at 25° C. The enzyme and compound was preincubated for 30 mins, plate was read 60 mins after substrate addition at wavelength Ex: 360/Em: 480 nm. The final assay volume was 20 μl. Stock solution of compounds were initially prepared in DMSO and appropriate dilutions were made for screening and IC50 determination (final DMSO conc in the assay was 1%). All the measurements were carried out using the Spectramax M5, Molecular devices. The compounds were screened at 1 and 10 μM concentration and IC50 was determined for the interested compounds.
To determine IC50 values, dose response curves were generated by plotting percentage inhibition as a function of inhibitor concentration and the data was fitted to sigmoidal non-linear regression equation (variable slope) using Graph Pad prism software V7.

inhibition at 1 µM | Structure (SMILES)
0 to 25% | N=C(N)c1ccc2cc(C(=O)Nc3ccc(F)cc3)n(Cc3ccc(C(N)=O)cc3)c2c1 [Compound I-59, 6-Carbamimidoyl-1-(4-carbamoylbenzyl)-N-(4-fluorophenyl)-1H-indole-2-carboxamide]
0 to 25% | N=C(N)c1ccc2cc(C(=O)Nc3cccc(C(F)(F)F)c3)n(Cc3ccc(C(N)=O)cc3)c2c1 [Compound I-60]
0 to 25% | N=C(N)c1ccc2cc(C(=O)Nc3ccc(C(F)(F)F)cc3)n(Cc3ccc(C(N)=O)cc3)c2c1 [Compound I-61]
0 to 25% | N=C(N)c1ccc2cc(C(=O)Nc3cccc(F)c3)n(Cc3ccc(C(N)=O)cc3)c2c1 [Compound I-62]
0 to 25% | C[C@H](NC(=O)c1cc2ccc(C(=N)N)cc2n1Cc1ccc(C(N)=O)cc1)c1ccc(F)cc1 [Compound I-63]
0 to 25% | N=C(N)c1ccc2cc(C(=O)Nc3ccc4c(c3)CCC4)n(Cc3ccc(C(N)=O)cc3)c2c1 [Compound I-64]
0 to 25% | N=C(N)c1ccc2cc(C(=O)Nc3ccc(Oc4ccccc4)cc3)n(Cc3ccc(C(N)=O)cc3)c2c1 [Compound I-65]
0 to 25% | N=C(N)c1ccc2cc(C(=O)Nc3ccc(-c4ccccc4)cc3)n(Cc3ccc(C(N)=O)cc3)c2c1 [Compound I-66]
0 to 25% | COc1cccc(NC(=O)c2cc3ccc(C(=N)N)cc3n2Cc2ccc(C(N)=O)cc2)c1 [Compound I-67]
0 to 25% | CSc1cccc(NC(=O)c2cc3ccc(C(=N)N)cc3n2Cc2ccc(C(N)=O)cc2)c1 [Compound I-68]
0 to 25% | COc1ccc(NC(=O)c2cc3ccc(C(=N)N)cc3n2Cc2ccc(C(N)=O)cc2)cc1OC [Compound I-69]
0 to 25% | C[C@@H](NC(=O)c1cc2ccc(C(=N)N)cc2n1Cc1ccc(C(N)=O)cc1)c1ccccc1 [Compound I-70]
0 to 25% | Cc1ccc(NC(=O)c2cc3ccc(C(=N)N)cc3n2Cc2ccc(C(N)=O)cc2)cc1O [Compound I-71]
0 to 25% | C[C@H](NC(=O)c1cc2ccc(C(=N)N)cc2n1Cc1ccc(C(N)=O)cc1)c1ccccc1 [Compound I-72]
25 to 50% | N=C(N)c1ccc2cc(C(=O)Nc3cccc4cnccc34)n(Cc3ccc(C(N)=O)cc3)c2c1 [Compound I-73]
0 to 25% | N=C(N)c1ccc2cc(C(=O)Nc3ccc4[nH]cnc4c3)n(Cc3ccc(C(N)=O)cc3)c2c1 [Compound I-74]
0 to 25% | N=C(N)c1ccc2cc(C(=O)NCc3cccc(F)c3)n(Cc3ccc(C(N)=O)cc3)c2c1 [Compound I-76]
0 to 25% | N=C(N)c1ccc2cc(C(=O)NCc3ccccc3)n(Cc3ccc(C(N)=O)cc3)c2c1 [Compound I-77]
0 to 25% | N=C(N)c1ccc2cc(C(=O)Nc3ccc(C(=O)N4CCCC4)cc3)n(Cc3ccc(C(N)=O)cc3)c2c1 [Compound I-78]
0 to 25% | CC(C)c1cccc(NC(=O)c2cc3ccc(C(=N)N)cc3n2Cc2ccc(C(N)=O)cc2)c1 [Compound I-79]
0 to 25% | N=C(N)c1ccc2cc(C(=O)NCc3cc(F)cc(F)c3)n(Cc3ccc(C(N)=O)cc3)c2c1 [Compound I-80]
0 to 25% | N=C(N)c1ccc2cc(C(=O)NCCc3ccccc3)n(Cc3ccc(C(N)=O)cc3)c2c1 [Compound I-81]
0 to 25% | CC(C)[C@H](NC(=O)c1cc2ccc(C(=N)N)cc2n1Cc1ccc(C(N)=O)cc1)c1ccccc1 [Compound I-82]
0 to 25% | N=C(N)c1ccc2cc(C(=O)NCc3cccc(C(F)(F)F)c3)n(Cc3ccc(C(N)=O)cc3)c2c1 [Compound I-83]
0 to 25% | N=C(N)c1ccc2cc(C(=O)Nc3ccc(Cl)cc3)n(Cc3ccc(C(N)=O)cc3)c2c1 [Compound I-84]
0 to 25% | N=C(N)c1ccc2cc(C(=O)N[C@@H](CO)c3ccccc3)n(Cc3ccc(C(N)=O)cc3)c2c1 [Compound I-85]

inhibition at 1 µM | Structure (SMILES)
0 to 25% | N=C(N)c1ccc2cc(C(=O)N[C@H](CO)c3ccccc3)n(Cc3ccc(C(N)=O)cc3)c2c1 [Compound I-86]
0 to 25% | N=C(N)c1ccc2cc(C(=O)Nc3ccc(F)c(F)c3)n(Cc3ccc(C(N)=O)cc3)c2c1 [Compound I-87]
0 to 25% | N=C(N)c1ccc2cc(C(=O)Nc3ccc4ncsc4c3)n(Cc3ccc(C(N)=O)cc3)c2c1 [Compound I-88]
0 to 25% | N=C(N)c1ccc2cc(C(=O)Nc3cc(F)c(F)c(F)c3)n(Cc3ccc(C(N)=O)cc3)c2c1 [Compound I-89]
0 to 25% | N=C(N)c1ccc2cc(C(=O)Nc3ccc(N4CCCC4)cc3)n(Cc3ccc(C(N)=O)cc3)c2c1 [Compound I-90]
0 to 25% | N=C(N)c1ccc2cc(C(=O)Nc3cccc4c3CCC4)n(Cc3ccc(C(N)=O)cc3)c2c1 [Compound I-91]
0 to 25% | N=C(N)c1ccc2cc(C(=O)Nc3ccc(C(=O)N4CCC4)cc3)n(Cc3ccc(C(N)=O)cc3)c2c1 [Compound I-92]
0 to 25% | CN(C)C(=O)COc1cccc(NC(=O)c2cc3ccc(C(=N)N)cc3n2Cc2ccc(C(N)=O)cc2)c1 [Compound I-93]
0 to 25% | C[C@H](NC(=O)c1cc2ccc(C(=N)N)cc2n1Cc1ccc(C(N)=O)cc1)c1ccc(F)c(F)c1 [Compound I-94]
0 to 25% | C[C@H](NC(=O)c1cc2ccc(C(=N)N)cc2n1Cc1ccc(C(N)=O)cc1)c1cccc(F)c1 [Compound I-95]
25 to 50% | CC[C@@H](NC(=O)c1cc2ccc(C(=N)N)cc2n1Cc1ccc(C(N)=O)cc1)c1ccccc1 [Compound I-96]
25 to 50% | N=C(N)c1ccc2cc(C(=O)Nc3ccc(N4CCC(F)(F)C4)cc3)n(Cc3ccc(C(N)=O)cc3)c2c1 [Compound I-97]
0 to 25% | C[C@H](NC(=O)c1cc2ccc(C(=N)N)cc2n1Cc1ccc(C(N)=O)cc1)c1ccc(Cl)cc1 [Compound I-98]
25 to 50% | CN(C)C(=O)COc1ccc(NC(=O)c2cc3ccc(C(=N)N)cc3n2Cc2ccc(C(N)=O)cc2)cc1 [Compound I-99]
25 to 50% | N=C(N)c1ccc2cc(C(=O)NCc3cccc(N4CCCC4)c3)n(Cc3ccc(C(N)=O)cc3)c2c1 [Compound I-100]
0 to 25% | N=C(N)c1ccc2cc(C(=O)Nc3ccc(N4CCCCC4)cc3)n(Cc3ccc(C(N)=O)cc3)c2c1 [Compound I-102]
0 to 25% | CN1CCC(N(C)C(=O)c2cc3ccc(C(=N)N)cc3n2Cc2ccc(C(N)=O)cc2)C1 (stereo not shown) [Compound I-103, 6-Carbamimidoyl-1-(4-carbamoylbenzyl)-N-methyl-N-(1-methylpyrrolidin-3-yl)-1H-indole-2-carboxamide]
0 to 25% | N=C(N)c1ccc2cc(C(=O)Nc3ccc(N4CCCC4)c(F)c3)n(Cc3ccc(C(N)=O)cc3)c2c1 [Compound I-104]
25 to 50% | N=C(N)c1ccc2cc(C(=O)Nc3ccc(N4CC[C@H](F)C4)cc3)n(Cc3ccc(C(N)=O)cc3)c2c1 [Compound I-105]
0 to 25% | N=C(N)c1ccc2cc(C(=O)Nc3ccc(C(=O)N4CC[C@H](F)C4)cc3)n(Cc3ccc(C(N)=O)cc3)c2c1 [Compound I-106]
0 to 25% | C[C@H](NC(=O)c1cc2ccc(C(=N)N)cc2n1Cc1ccc(C(N)=O)cc1)c1ccc(Cl)c(Cl)c1 [Compound I-107]
0 to 25% | N=C(N)c1ccc2cc(C(=O)Nc3cc(F)cc(N4CCCC4)c3)n(Cc3ccc(C(N)=O)cc3)c2c1 [Compound I-108]
0 to 25% | CC(C)(NC(=O)c1cc2ccc(C(=N)N)cc2n1Cc1ccc(C(N)=O)cc1)c1ccc(Cl)cc1 [Compound I-109]
0 to 25% | N=C(N)c1ccc2cc(C(=O)Nc3cccc(N4CCCCC4)c3)n(Cc3ccc(C(N)=O)cc3)c2c1 [Compound I-110]
0 to 25% | N=C(N)c1ccc2cc(C(=O)Nc3ccc(F)c(Br)c3)n(Cc3ccc(C(N)=O)cc3)c2c1 [Compound I-111]
25 to 50% | N=C(N)c1ccc2cc(C(=O)NCc3ccc(N4CCCC4)cc3)n(Cc3ccc(C(N)=O)cc3)c2c1 [Compound I-112]
